For one test, the system named is leukemia MV-4-11 cell. Briefly: Cell proliferation assay (CellTiter-Glo), MV-4-11. The test is classed as cell-based. The settings on record: Homo sapiens, MV4-11, MV-4-11, 120 hrs, CTG, read-out: Compound on MV-4-11 cell IC50. How it is done: (§1) The effects of the compounds on the proliferation of leukemia MV-4-11 cell and lung cancer NCI-H358 cell were evaluated by in vitro cell test. The assay used in this study was the CELL TITER-GLO (CTG) luminescence assay, which can detect the number of living cells by quantitative determination of ATP. Because ATP is involved in a variety of enzymatic reactions in vivo and is an indicator of the metabolism of living cells, its content can directly reflects the number and state of cells. During the experiment, Celltiter-Glo™ reagent was added to the cell culture medium to measure the luminescence value. The luminescence value was proportional to the amount of ATP, which in turn was positively correlated with the number of living cells. Therefore, ATP content can be used to detect cell viability.
A bottle of MV-4-11 cells in logarithmic growth phase was taken, the cells were collected, centrifuged, resuspend, counted, and then inoculated into 96-well Microplate (Corning #3917), with 4000 cells inoculated in each well. The plates were placed in an incubator at 37° C. and 5% CO2 for 24 hrs culture, and the compounds of the invention were added for conducting.
(§2) An appropriate amount of the compound of the invention was taken for cell treatment, and the final concentration of the compound from high to low was 1000 nM, 333.3 nM, 111.1 nM, 37.04 nM, 12.35 nM, 4.115 nM, 1.372 nm, 0.4572 nM, 0.1524 nM, 0 nM, respectively. The orifice plate was cultured in an incubator at 37° C. and 5% CO2. Only adding medium without adding cell hole was set as blank group. Compound concentration of 0 nM group was zero control group.
After cultured for 120 hrs, MV-4-11 cells were added with 50 μL CellTiter-Glo® Luminescent cell viability assay solution in each well, gently shaken for 2 mins, and incubated at room temperature for 10 mins. The detection values of each well were read on the multi-functional microplate reader.
(§3) The inhibition rate is calculated according to the luminous value reading,
(§4) Inhibition rate %=(1−(administration group value−blank group value)/(control group value−blank group value)*100
(§5) The log (inhibitor) vs. response variable slope of GraphPad Prism was used to fit the dose-response curve and calculate the IC50 of compounds inhibiting cell proliferation.

The test system of test [1] is lung cancer NCI-H358 cell. Briefly: Cell proliferation assay (CellTiter-Glo), NCI-H358. The test is classed as cell-based. The settings on record: Homo sapiens, NCI-H358, 96 hrs, CTG, read-out: Compound on NCI-H358 cell IC50. How it is done:
as §1
A bottle of NCI-H358 cells in logarithmic growth phase was taken, the cells were digested and resuspend, counted, and then the cell density was adjusted. After that, the cells were inoculated into a 96-well Ultra-Low Attachment Microplate (Corning #3474), 2000 cells were inoculated in each well, and the well plate was placed in an incubator at 37° C. and 5% CO2, and the compounds of the invention were added for conducting.
as §2
NCI-H358 cells were cultured for 96 hrs, then 50 μL CellTiter-Glo® Luminescent cell viability assay solution was added to each well, and the cells were gently shaken for 2 mins, and incubated at room temperature for 10 mins. The cell reaction system was transferred to 96-well Microplate (Corning #3917). The detection values of each well were read on the multi-functional microplate reader.
as §3, §4, §5
In general terms: Cellular ATP, detected with luciferase, serves as a proxy for viable cell number.

In another test the target is T1, SHP2 (Homo sapiens, UniProt Q06124).
T1 sequence (Q06124 1-593): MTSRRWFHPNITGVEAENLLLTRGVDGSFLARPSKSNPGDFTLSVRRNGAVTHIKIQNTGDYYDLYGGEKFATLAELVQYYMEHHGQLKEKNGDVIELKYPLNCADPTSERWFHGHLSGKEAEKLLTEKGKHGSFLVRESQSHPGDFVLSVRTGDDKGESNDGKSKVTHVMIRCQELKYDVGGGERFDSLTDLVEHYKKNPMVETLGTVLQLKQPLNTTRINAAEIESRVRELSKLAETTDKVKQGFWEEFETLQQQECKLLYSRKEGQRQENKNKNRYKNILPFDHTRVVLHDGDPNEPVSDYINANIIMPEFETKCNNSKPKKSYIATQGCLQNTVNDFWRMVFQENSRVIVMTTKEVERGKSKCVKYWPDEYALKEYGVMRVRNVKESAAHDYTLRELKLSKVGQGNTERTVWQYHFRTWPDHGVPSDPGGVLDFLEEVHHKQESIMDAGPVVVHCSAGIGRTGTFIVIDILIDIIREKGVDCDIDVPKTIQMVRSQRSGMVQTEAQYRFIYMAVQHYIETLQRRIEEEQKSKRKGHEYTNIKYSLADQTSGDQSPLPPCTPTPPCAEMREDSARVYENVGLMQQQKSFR
Kind of test: SHP2 allosteric inhibitor enzyme activity assay (DiFMUP fluorescence). The test is classed as biochemical. Put shortly:
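SHP2 activated by 0.5 μM IRS1_pY1172(dPEG8)pY1222 peptide, 0.2 ng enzyme per well, 1 h at room temperature with compound (1 μM top, 3-fold series), then DiFMUP substrate 1 h. Buffer: 60 mM HEPES, 75 mM NaCl, 75 mM KCl, 0.05% BRIJ-35, 1 mM EDTA, 5 mM DTT. Fluorescence ex 340/em 450 nm; IC50 by variable-slope fit.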

pIC50: −log10 of the molar value. Read-outs that look alike come from different tables or passages of the source.

As for `N[C@@H]1c2ccccc2CC12CCN(c1nn3cc(C4CC4)nc3s1)CC2` [Comparative compound 2, reference compound], the values for the negative-log IC50 (pIC50) (in the test with leukemia MV-4-11 cell (numeric values); in test [1] (numeric values)) were 6.34 and 5.74, respectively.
Turning to `N[C@@H]1c2ccccc2CC12CCN(c1nc3[nH]nc(C4=CCOc5c(F)cccc54)c3c(=O)[nH]1)CC2` [Example 124], the results for the pIC50 (at SHP2 (numeric values); in the test with leukemia MV-4-11 cell (numeric values); in test [1] (numeric values)) were 9.32, 8.77 and 8.80, respectively.
In the case of `N[C@@H]1c2ccccc2CC12CCN(c1nc3[nH]nc(C4(c5cccc(Cl)c5)CC4)c3c(=O)[nH]1)CC2` [Example 4, (S)-6-(1-amino-1,3-dihydrospiro[indene-2,4′-piperidin]-1′-yl)-3-(1-(3-chlorophenyl)cyclopropyl)-1,5-dihydro-4H-pyrazolo[3,4-d]pyrimidin-4-one], the pIC50 (on SHP2 (class symbols); in the test on leukemia MV-4-11 cell (class symbols); in test [1] (class symbols)) was at least 7.70 throughout.
On to `COc1ccccc1C1(c2n[nH]c3nc(N4CCC5(CC4)Cc4ccccc4[C@H]5N)[nH]c(=O)c23)CC1` [Example 17, (S)-6-(1-amino-1,3-dihydrospiro[indene-2,4′-piperidin]-1′-yl)-3-(1-(2-methoxyphenyl)cyclopropyl)-1,5-dihydro-4H-pyrazolo[3,4-d]pyrimidin-4-one], for which the pIC50 against SHP2 (class symbols) is at least 7.70; with leukemia MV-4-11 cell (class symbols) it was 7.22 to 7.70; in test [1] (class symbols), 7.22 to 7.70.
In the case of `CC1(C)C=C(c2n[nH]c3nc(N4CCC5(CC4)Cc4ccccc4[C@H]5N)[nH]c(=O)c23)c2ccc(C(F)(F)F)nc2C1` [Example 144, (S)-6-(1-amino-1,3-dihydrospiro[indene-2,4′-piperidin]-1′-yl)-3-(7,7-dimethyl-2-(trifluoromethyl)-7,8-dihydroquinolin-5-yl)-1,5-dihydro-4H-pyrazolo[3,4-d]pyrimidin-4-one], the results for the pIC50 (against SHP2 (class symbols); with leukemia MV-4-11 cell (class symbols); in test [1] (class symbols)) were at least 7.70, 7.22 to 7.70 and 7.22 to 7.70, respectively.
`CC(=O)c1cccc(C2(c3n[nH]c4nc(N5CCC6(CC5)Cc5ccccc5[C@H]6N)[nH]c(=O)c34)CC2)c1` [Example 223, (S)-3-(1-(3-acetylphenyl)cyclopropyl)-6-(1-amino-1,3-dihydrospiro[indene-2,4′-piperidin]-1′-yl)-1,5-dihydro-4H-pyrazolo[3,4-d]pyrimidin-4-one]: the pIC50 at SHP2 (class symbols) is at least 7.70; in the test on leukemia MV-4-11 cell (numeric values), 8.55; in test [1] (numeric values), 7.96.
For `COc1cccc(C2(c3n[nH]c4nc(N5CCC6(CC5)Cc5ccccc5[C@H]6N)[nH]c(=O)c34)CC2)c1` [Example 18, (S)-6-(1-amino-1,3-dihydrospiro[indene-2,4′-piperidin]-1′-yl)-3-(1-(3-methoxyphenyl)cyclopropyl)-1,5-dihydro-4H-pyrazolo[3,4-d]pyrimidin-4-one], the pIC50 (against SHP2 (class symbols); in the test with leukemia MV-4-11 cell (class symbols); in test [1] (class symbols)) was at least 7.70 throughout.
Regarding `N[C@@H]1c2ccccc2CC12CCN(c1nc3[nH]nc(C4=CCCCc5ccccc54)c3c(=O)[nH]1)CC2` [Example 125], the values for the pIC50 (against SHP2 (numeric values); in the test with leukemia MV-4-11 cell (numeric values); in test [1] (numeric values)) were 8.80, 8.72 and 8.96, respectively.
`COc1ccccc1C1(c2n[nH]c3nc(N4CCC5(CC4)CO[C@@H](C)[C@H]5N)[nH]c(=O)c23)CC1` [Example 306, 6-((3S,4S)-4-amino-3-methyl-2-oxa-8-azaspiro[4.5]decan-8-yl)-3-(1-(2-methoxyphenyl)cyclopropyl)-1,5-dihydro-4H-pyrazolo[3,4-d]pyrimidin-4-one] had a pIC50 on SHP2 (class symbols) of 7.22 to 7.70.
Consider `N[C@@H]1c2ccccc2CC12CCN(c1nc3[nH]nc(C4(c5ccccc5Cl)CC4)c3c(=O)[nH]1)CC2` [Example 12, (S)-6-(1-amino-1,3-dihydrospiro[indene-2,4′-piperidin]-1′-yl)-3-(1-(2-chlorophenyl)cyclopropyl)-1,5-dihydro-4H-pyrazolo[3,4-d]pyrimidin-4-one], for which, on SHP2 (class symbols), the pIC50 is at least 7.70.
`Cn1c2c(c3ccccc31)C(c1n[nH]c3nc(N4CCC5(CC4)Cc4ccccc4[C@H]5N)[nH]c(=O)c13)=CCC2` [Example 113, (S)-6-(1-amino-1,3-dihydrospiro[indene-2,4′-piperidin]-1′-yl)-3-(9-methyl-2,9-dihydro-1H-carbazol-4-yl)-1,5-dihydro-4H-pyrazolo[3,4-d]pyrimidin-4-one] showed a pIC50 at SHP2 (class symbols) of at least 7.70.
On the same count and under the same terms, the same measure for `COc1ccc2c(c1)[C@@H](N)C1(CCN(c3nc4[nH]nc(C5(c6ccccc6)CC5)c4c(=O)[nH]3)CC1)C2` [Example 192, (S)-6-(1-amino-6-methoxy-1,3-dihydrospiro[indene-2,4′-piperidin]-1′-yl)-3-(1-phenylcyclopropyl)-1,5-dihydro-4H-pyrazolo[3,4-d]pyrimidin-4-one]: at least 7.70.
Still for that read-out and setting: the same measure for `C[C@@H]1OCC2(CCN(c3nc4[nH]nc(C5(c6cccc(O)c6)CC5)c4c(=O)[nH]3)CC2)[C@@H]1N` [Example 310, 6-((3S,4S)-4-amino-3-methyl-2-oxa-8-azaspiro[4.5]decan-8-yl)-3-(1-(3-hydroxyphenyl)cyclopropyl)-1,5-dihydro-4H-pyrazolo[3,4-d]pyrimidin-4-one]: 7.22 to 7.70; for `C[C@@H]1OCC2(CCN(c3nc4[nH]nc(C5(c6cccc(C(F)(F)F)c6)CC5)c4c(=O)[nH]3)CC2)[C@@H]1N` [Example 297, 6-((3S,4S)-4-amino-3-methyl-2-oxa-8-azaspiro[4.5]decan-8-yl)-3-(1-(3-(trifluoromethyl)phenyl)cyclopropyl)-1,5-dihydro-4H-pyrazolo[3,4-d]pyrimidin-4-one]: 7.22 to 7.70; for `C[C@@H]1OCC2(CCN(c3nc4[nH]nc(C5(c6ccc(C#N)cc6)CC5)c4c(=O)[nH]3)CC2)[C@@H]1N` [Example 315, 4-(1-(6-((3S,4S)-4-amino-3-methyl-2-oxa-8-azaspiro[4.5]decan-8-yl)-4-oxo-4,5-dihydro-1H-pyrazolo[3,4-d]pyrimidin-3-yl)cyclopropyl)benzonitrile]: 7.22 to 7.70.
Same read-out and setting: with `N[C@@H]1c2ccccc2CC12CCN(c1nc3[nH]nc(C4=CCOc5cc(C(F)(F)F)ccc54)c3c(=O)[nH]1)CC2` [Example 168, (S)-6-(1-amino-1,3-dihydrospiro[indene-2,4′-piperidin]-1′-yl)-3-(7-(trifluoromethyl)-2H-chromen-4-yl)-1,5-dihydro-4H-pyrazolo[3,4-d]pyrimidin-4-one] the figure was at least 7.70; with `N[C@@H]1c2ccccc2CC12CCN(c1nc3[nH]nc(C4(c5ncco5)CC4)c3c(=O)[nH]1)CC2` [Example 243, (S)-6-(1-amino-1,3-dihydrospiro[indene-2,4′-piperidin]-1′-yl)-3-(1-(oxazol-2-yl)cyclopropyl)-1,5-dihydro-4H-pyrazolo[3,4-d]pyrimidin-4-one], at least 7.70.

The term pIC50 denotes the IC50 on a negative log10 scale, so that one unit is a factor of ten.

These data come from US20230192705A1, “SHP2 INHIBITORS, COMPOSITIONS AND USES THEREOF” (Betta Pharmaceuticals Co., Ltd, priority 2020, published 2023).
